Results: patent US8877748B2, “Heterocyclic fused anthraquinone derivatives, manufacturing method and pharmaceutical composition using thereof” (National Defense Medical Center, priority 2012, dated 2014)

Tests used:
Format in all cases: cell-based, human
SN12C = assay: NCI one-dose screening, renal cancer SN12C; settings: 10 μM
TK-10 = assay: NCI one-dose screening, renal cancer TK-10; settings: 10 μM
SNB-19 = assay: NCI one-dose screening, CNS cancer SNB-19; settings: 10 μM
EKVX = assay: NCI one-dose screening, non-small cell lung cancer EKVX; settings: 10 μM
MOLT-4 = assay: NCI one-dose screening, leukemia MOLT-4; settings: 10 μM
SF-539 = assay: NCI one-dose screening, CNS cancer SF-539; settings: 10 μM
SF-295 = assay: NCI one-dose screening, CNS cancer SF-295; settings: 10 μM
NCI-H322M = assay: NCI one-dose screening, non-small cell lung cancer NCI-H322M; settings: 10 μM; Non-small cell lung cancer
NCI-H522 = assay: NCI one-dose screening, non-small cell lung cancer NCI-H522; settings: 10 μM
HCT-116 = assay: NCI one-dose screening, colon cancer HCT-116; settings: 10 μM
IGROV1 = assay: NCI one-dose screening, ovarian cancer IGROV1; settings: 10 μM
M14 = assay: NCI one-dose screening, melanoma M14; settings: 10 μM
LOX IMVI = assay: NCI one-dose screening, melanoma LOX IMVI; settings: 10 μM
UACC-62 = assay: NCI one-dose screening, melanoma UACC-62; settings: 10 μM
CCRF-CEM = assay: NCI screening platform one-dose single concentration screening, leukemia CCRF-CEM; settings: 10 μM
HCT-15 = assay: NCI one-dose screening, colon cancer HCT-15; settings: 10 μM
786-O = assay: NCI one-dose screening, renal cancer 786-O; settings: 10 μM
SR = assay: NCI one-dose screening, leukemia SR; settings: 10 μM
OVCAR-4 = assay: NCI one-dose screening, ovarian cancer OVCAR-4; settings: 10 μM
[1] = system: PC-3 prostate cancer cell line; assay: SRB assay cell viability, PC-3 prostate cancer cell line; settings: Homo sapiens, PC-3 prostate cancer cell line, Table II prints no unit, μM printed, read-out: SRB assay: 50% inhibition of cancer cell proliferation of sample concentration (IC50) of PC-3 prostate cancer cell line
SNB-75 = assay: NCI one-dose screening, CNS cancer SNB-75; settings: 10 μM
NCI-H23 = assay: NCI one-dose screening, non-small cell lung cancer NCI-H23; settings: 10 μM
A549/ATCC = assay: NCI one-dose screening, non-small cell lung cancer A549/ATCC; settings: 10 μM
OVCAR-3 = assay: NCI one-dose screening, ovarian cancer OVCAR-3; settings: 10 μM
COLO 205 = assay: NCI one-dose screening, colon cancer COLO 205; settings: 10 μM
NCl/ADR-RES = assay: NCI one-dose screening, breast cancer NCl/ADR-RES; settings: 10 μM; listed under Ovarian cancer
OVCAR-8 = assay: NCI one-dose screening, ovarian cancer OVCAR-8; settings: 10 μM
MALME-3M = assay: NCI one-dose screening, melanoma MALME-3M; settings: 10 μM
HL-60, TB = assay: NCI one-dose screening, leukemia HL-60, TB; settings: 10 μM
CAKI-1 = assay: NCI one-dose screening, renal cancer CAKI-1; settings: 10 μM
SF-268 = assay: NCI one-dose screening, CNS cancer SF-268; settings: 10 μM
U251 = assay: NCI one-dose screening, CNS cancer U251; settings: 10 μM
SK-MEL-2 = assay: NCI one-dose screening, melanoma SK-MEL-2; settings: 10 μM
HCC-2998 = assay: NCI one-dose screening, colon cancer HCC-2998; settings: 10 μM
NCI-H460 = assay: NCI one-dose screening, non-small cell lung cancer NCI-H460; settings: 10 μM
SK-MEL-28 = assay: NCI one-dose screening, melanoma SK-MEL-28; settings: 10 μM
NCI-H226 = assay: NCI one-dose screening, non-small cell lung cancer NCI-H226; settings: 10 μM
PRMI-8226 cell line = assay: NCI one-dose screening, leukemia PRMI-8226; settings: 10 μM
RXF, 393 = assay: NCI one-dose screening, renal cancer RXF, 393; settings: 10 μM
ACHN = assay: NCI one-dose screening, renal cancer ACHN; settings: 10 μM
OVCAR-5 = assay: NCI one-dose screening, ovarian cancer OVCAR-5; settings: 10 μM
SK-MEL-5 = assay: NCI one-dose screening, melanoma SK-MEL-5; settings: 10 μM
HOP-62 = assay: NCI one-dose screening, non-small cell lung cancer HOP-62; settings: 10 μM
MDA, -MB-435 = assay: NCI one-dose screening, breast cancer MDA, -MB-435; settings: 10 μM; listed under Melanoma
KM12 = assay: NCI one-dose screening, colon cancer KM12; settings: 10 μM
UACC-257 = assay: NCI one-dose screening, melanoma UACC-257; settings: 10 μM
HT29 = assay: NCI one-dose screening, colon cancer HT29; settings: 10 μM
K562cell line = assay: NCI one-dose screening, leukemia K562; settings: 10 μM

Cc1cccc(C)c1Sc1cc2c(c3nsnc13)C(=O)c1ccccc1C2=O [C55, 4-(2,6-dimethylphenylthio)anthra[2,1-c] [1,2,5]thiadiazol-6,11-dione]
Growth Percent SN12C (SN12C): 67.67%
Growth Percent TK-10 (TK-10): 119.41%
Growth Percent SNB-19 (SNB-19): 94.75%
Growth Percent EKVX (EKVX): 82.44%
Growth Percent MOLT-4 (MOLT-4): 32.64%
Growth Percent SF-539 (SF-539): 84.51%
Growth Percent SF-295 (SF-295): 91.11%
Growth Percent NCI-H322M (NCI-H322M): 83.83%
Growth Percent NCI-H522 (NCI-H522): 61.39%
Growth Percent HCT-116 (HCT-116): 64.99%
Growth Percent IGROV1 (IGROV1): 66.38%
Growth Percent M14 (M14): 121.55%
Growth Percent LOX IMVI (LOX IMVI): 44.61%
Growth Percent UACC-62 (UACC-62): 91.72%
Growth Percent CCRF-CEM (CCRF-CEM): 34.84%
Growth Percent HCT-15 (HCT-15): 47.54%
Growth Percent 786-0 (786-O): 115.19%
Growth Percent SR (SR): 35.52%
Growth Percent OVCAR-4 (OVCAR-4): 4.00%
IC50 [1]: 6.74 µM
Growth Percent SNB-75 (SNB-75): 69.38%
Growth Percent NCI-H23 (NCI-H23): 67.37%
Growth Percent A549/ATCC (A549/ATCC): 90.16%
Growth Percent OVCAR-3 (OVCAR-3): 1.00%
Growth Percent COLO 205 (COLO 205): 98.76%
Growth Percent NCI/ADR-RES (NCl/ADR-RES): 59.68%
Growth Percent OVCAR-8 (OVCAR-8): 58.98%
Growth Percent MALME-3M (MALME-3M): 73.72%
Growth Percent HL-60(TB) (HL-60, TB): 47.83%
Growth Percent CAKI-1 (CAKI-1): 61.03%
Growth Percent SF-268 (SF-268): 79.48%
Growth Percent U251 (U251): 53.94%
Growth Percent SK-MEL-2 (SK-MEL-2): 67.54%
Growth Percent HCC-2998 (HCC-2998): 100.96%
Growth Percent NCI-H460 (NCI-H460): 87.37%
Growth Percent SK-MEL-28 (SK-MEL-28): 89.33%
Growth Percent NCI-H226 (NCI-H226): 78.31%
Growth Percent RPMI-8226 (PRMI-8226 cell line): 55.63%
Growth Percent RXF 393 (RXF, 393): 76.16%
Growth Percent ACHN (ACHN): 83.18%
Growth Percent OVCAR-5 (OVCAR-5): 113.96%
Growth Percent SK-MEL-5 (SK-MEL-5): 70.23%
Growth Percent HOP-62 (HOP-62): 90.01%
Growth Percent MDA-MB-435 (MDA, -MB-435): 96.77%
Growth Percent KM12 (KM12): 95.96%
Growth Percent UACC-257 (UACC-257): 86.57%
Growth Percent HT29 (HT29): 97.73%
Growth Percent K562 (K562cell line): 43.14%

CCSc1cc2c(c3nsnc13)C(=O)c1ccccc1C2=O [C16, 4-(ethylthio)anthra[2,1-c][1,2,5] thiadiazol-6,11-dione]
Growth Percent SN12C (SN12C): −61.79%
Growth Percent TK-10 (TK-10): 103.17%
Growth Percent SNB-19 (SNB-19): 83.19%
Growth Percent EKVX (EKVX): 56.13%
Growth Percent MOLT-4 (MOLT-4): −50.44%
Growth Percent SF-539 (SF-539): −22.78%
Growth Percent SF-295 (SF-295): 79.94%
Growth Percent NCI-H322M (NCI-H322M): 89.71%
Growth Percent NCI-H522 (NCI-H522): −88.01%
Growth Percent HCT-116 (HCT-116): −82.82%
Growth Percent IGROV1 (IGROV1): −54.45%
Growth Percent M14 (M14): 47.15%
Growth Percent LOX IMVI (LOX IMVI): −91.42%
Growth Percent UACC-62 (UACC-62): −38.24%
Growth Percent CCRF-CEM (CCRF-CEM): −35.53%
Growth Percent HCT-15 (HCT-15): 2.65%
Growth Percent 786-0 (786-O): 80.27%
Growth Percent SR (SR): −54.27%
Growth Percent OVCAR-4 (OVCAR-4): −100.00%
IC50 [1]: 5.39 µM
Growth Percent SNB-75 (SNB-75): 33.65%
Growth Percent NCI-H23 (NCI-H23): −25.43%
Growth Percent A549/ATCC (A549/ATCC): 20.39%
Growth Percent OVCAR-3 (OVCAR-3): −76.39%
Growth Percent COLO 205 (COLO 205): 97.05%
Growth Percent NCI/ADR-RES (NCl/ADR-RES): −37.28%
Growth Percent OVCAR-8 (OVCAR-8): −79.84%
Growth Percent MALME-3M (MALME-3M): −58.68%
Growth Percent HL-60(TB) (HL-60, TB): −45.01%
Growth Percent CAKI-1 (CAKI-1): −1.76%
Growth Percent SF-268 (SF-268): −54.89%
Growth Percent U251 (U251): −73.58%
Growth Percent SK-MEL-2 (SK-MEL-2): −69.35%
Growth Percent HCC-2998 (HCC-2998): 90.47%
Growth Percent NCI-H460 (NCI-H460): 27.92%
Growth Percent SK-MEL-28 (SK-MEL-28): −41.99%
Growth Percent NCI-H226 (NCI-H226): 53.41%
Growth Percent RPMI-8226 (PRMI-8226 cell line): −35.20%
Growth Percent RXF 393 (RXF, 393): −62.42%
Growth Percent ACHN (ACHN): −44.97%
Growth Percent OVCAR-5 (OVCAR-5): 115.03%
Growth Percent SK-MEL-5 (SK-MEL-5): −94.86%
Growth Percent HOP-62 (HOP-62): 2.44%
Growth Percent MDA-MB-435 (MDA, -MB-435): −61.08%
Growth Percent KM12 (KM12): 69.33%
Growth Percent UACC-257 (UACC-257): −86.35%
Growth Percent HT29 (HT29): 77.39%
Growth Percent K562 (K562cell line): −44.64%
